PubChem BioAssay AID1963844 (Molecular Pharmacology Branch, DTP, NCI, 2024)

System: 422866-222-R5-J1-PDC complex spheroid viability
Assay: Anticancer human tumor 422866-222-R5-J1-PDC patient-derived pancreatic adenocarcinoma cell line growth inhibition [POLQ]
Details: for IC50: curve of first compound; for viability, T/C: stronger effect = lower value
In short: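 Three-cell-type spheroids modelling solid tumor plus stroma served as the readout system; POL inhibitors were tested individually and in combination, concentration ranges set by clinical Cmax where known.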

[1] = second compound 0.0316 µM, first compound 0.0316 µM
[2] = second compound 0.0316 µM, first compound 0.1 µM
[3] = second compound 0.0316 µM, first compound 0.316 µM
[4] = second compound 0.0316 µM, first compound 1 µM
[5] = second compound 0.0316 µM, first compound 3.16 µM
[6] = second compound 0.0316 µM, first compound 10 µM
[7] = second compound 0.1 µM, first compound 0.0316 µM
[8] = second compound 0.1 µM, first compound 0.1 µM
[9] = second compound 0.1 µM, first compound 0.316 µM
[10] = second compound 0.1 µM, first compound 1 µM
[11] = second compound 0.1 µM, first compound 3.16 µM
[12] = second compound 0.1 µM, first compound 10 µM
[13] = second compound 0.316 µM, first compound 0.0316 µM
[14] = second compound 0.316 µM, first compound 0.1 µM
[15] = second compound 0.316 µM, first compound 0.316 µM
[16] = second compound 0.316 µM, first compound 1 µM
[17] = second compound 0.316 µM, first compound 3.16 µM
[18] = second compound 0.316 µM, first compound 10 µM
[19] = second compound 1 µM, first compound 0.0316 µM
[20] = second compound 1 µM, first compound 0.1 µM
[21] = second compound 1 µM, first compound 0.316 µM
[22] = second compound 1 µM, first compound 1 µM
[23] = second compound 1 µM, first compound 3.16 µM
[24] = second compound 1 µM, first compound 10 µM
[25] = second compound 3.16 µM, first compound 0.0316 µM
[26] = second compound 3.16 µM, first compound 0.1 µM
[27] = second compound 3.16 µM, first compound 0.316 µM
[28] = second compound 3.16 µM, first compound 1 µM
[29] = second compound 3.16 µM, first compound 3.16 µM
[30] = second compound 3.16 µM, first compound 10 µM
[31] = second compound 10 µM, first compound 0.0316 µM
[32] = second compound 10 µM, first compound 0.1 µM
[33] = second compound 10 µM, first compound 0.316 µM
[34] = second compound 10 µM, first compound 1 µM
[35] = second compound 10 µM, first compound 3.16 µM
[36] = second compound 10 µM, first compound 10 µM
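Further: spheroids exposed to compounds for one week before readout.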
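Wherever viability, T/C is given: percent of DMSO vehicle wells luminescence so 100% = untreated viability.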

Structure (SMILES): COc1cc2cc(C(=O)CCC(=O)O)sc2cc1OC + Cc1cccc(N(C)C(=O)C2C(O)CCN2c2nc(C)cc(C(F)(F)F)c2C#N)c1
- IC50 (second compound 0.0316 µM): > 10000 nM
- IC50 (second compound 0.1 µM): > 10000 nM
- IC50 (second compound 0.316 µM): > 10000 nM
- IC50 (second compound 1 µM): > 10000 nM
- IC50 (second compound 3.16 µM): > 10000 nM
- IC50 (second compound 10 µM): > 10000 nM
- viability, T/C [1]: 95.6%
- viability, T/C [2]: 106%
- viability, T/C [3]: 98.6%
- viability, T/C [4]: 90.5%
- viability, T/C [5]: 85.4%
- viability, T/C [6]: 103%
- viability, T/C [7]: 101%
- viability, T/C [8]: 91.1%
- viability, T/C [9]: 82.6%
- viability, T/C [10]: 101%
- viability, T/C [11]: 75.5%
- viability, T/C [12]: 121%
- viability, T/C [13]: 116%
- viability, T/C [14]: 90.3%
- viability, T/C [15]: 91.8%
- viability, T/C [16]: 93.4%
- viability, T/C [17]: 93.7%
- viability, T/C [18]: 116%
- viability, T/C [19]: 94.9%
- viability, T/C [20]: 113%
- viability, T/C [21]: 98.2%
- viability, T/C [22]: 80.3%
- viability, T/C [23]: 87.9%
- viability, T/C [24]: 117%
- viability, T/C [25]: 107%
- viability, T/C [26]: 101%
- viability, T/C [27]: 109%
- viability, T/C [28]: 93.1%
- viability, T/C [29]: 85.7%
- viability, T/C [30]: 121%
- viability, T/C [31]: 88.6%
- viability, T/C [32]: 93%
- viability, T/C [33]: 103%
- viability, T/C [34]: 75.2%
- viability, T/C [35]: 79.6%
- viability, T/C [36]: 112%

Structure (SMILES): COc1ccc([C@@H](O)c2cc(-c3ncnc4cc(N5CCOCC5)ccc34)c(F)cc2Cl)nn1 + Cc1cccc(N(C)C(=O)C2C(O)CCN2c2nc(C)cc(C(F)(F)F)c2C#N)c1
- IC50 (second compound 0.0316 µM): 2600 nM
- IC50 (second compound 0.1 µM): 4620 nM
- IC50 (second compound 0.316 µM): 2420 nM
- IC50 (second compound 1 µM): 1920 nM
- IC50 (second compound 3.16 µM): 1650 nM
- IC50 (second compound 10 µM): 2280 nM
- viability, T/C [1]: 91.6%
- viability, T/C [2]: 92.2%
- viability, T/C [3]: 77.4%
- viability, T/C [4]: 62.1%
- viability, T/C [5]: 49.1%
- viability, T/C [6]: 35.5%
- viability, T/C [7]: 92%
- viability, T/C [8]: 81.3%
- viability, T/C [9]: 83.2%
- viability, T/C [10]: 64.5%
- viability, T/C [11]: 54.5%
- viability, T/C [12]: 42.3%
- viability, T/C [13]: 108%
- viability, T/C [14]: 86.3%
- viability, T/C [15]: 70.9%
- viability, T/C [16]: 61.3%
- viability, T/C [17]: 43.9%
- viability, T/C [18]: 41.4%
- viability, T/C [19]: 89.9%
- viability, T/C [20]: 81.1%
- viability, T/C [21]: 85.9%
- viability, T/C [22]: 58.5%
- viability, T/C [23]: 44.6%
- viability, T/C [24]: 33.3%
- viability, T/C [25]: 79.8%
- viability, T/C [26]: 90.7%
- viability, T/C [27]: 80.3%
- viability, T/C [28]: 56.4%
- viability, T/C [29]: 43.1%
- viability, T/C [30]: 37.1%
- viability, T/C [31]: 93.3%
- viability, T/C [32]: 83.8%
- viability, T/C [33]: 73.5%
- viability, T/C [34]: 59%
- viability, T/C [35]: 46%
- viability, T/C [36]: 37.6%

Structure (SMILES): O=C(Nc1ccc(O)c(NS(=O)(=O)c2ccc(F)cc2)c1)c1ccc(-c2ccccc2)cc1 + Cc1cccc(N(C)C(=O)C2C(O)CCN2c2nc(C)cc(C(F)(F)F)c2C#N)c1
- IC50 (second compound 0.0316 µM): > 10000 nM
- IC50 (second compound 0.1 µM): > 10000 nM
- IC50 (second compound 0.316 µM): > 10000 nM
- IC50 (second compound 1 µM): > 10000 nM
- IC50 (second compound 3.16 µM): > 10000 nM
- IC50 (second compound 10 µM): > 10000 nM
- viability, T/C [1]: 94.2%
- viability, T/C [2]: 89.3%
- viability, T/C [3]: 73.9%
- viability, T/C [4]: 89.3%
- viability, T/C [5]: 99.8%
- viability, T/C [6]: 121%
- viability, T/C [7]: 85.4%
- viability, T/C [8]: 89.8%
- viability, T/C [9]: 89%
- viability, T/C [10]: 91.3%
- viability, T/C [11]: 95.5%
- viability, T/C [12]: 116%
- viability, T/C [13]: 94.3%
- viability, T/C [14]: 99%
- viability, T/C [15]: 90.9%
- viability, T/C [16]: 101%
- viability, T/C [17]: 90.7%
- viability, T/C [18]: 106%
- viability, T/C [19]: 96%
- viability, T/C [20]: 94.5%
- viability, T/C [21]: 99.2%
- viability, T/C [22]: 88.9%
- viability, T/C [23]: 86.3%
- viability, T/C [24]: 113%
- viability, T/C [25]: 97.2%
- viability, T/C [26]: 91.8%
- viability, T/C [27]: 89.2%
- viability, T/C [28]: 92.9%
- viability, T/C [29]: 94.2%
- viability, T/C [30]: 118%
- viability, T/C [31]: 71.9%
- viability, T/C [32]: 82.3%
- viability, T/C [33]: 87.3%
- viability, T/C [34]: 86.8%
- viability, T/C [35]: 97.6%
- viability, T/C [36]: 103%

Structure (SMILES): COc1cccc2c1C(=O)c1c(O)c3c(c(O)c1C2=O)CC(O)(C(=O)CO)CC3OC1CC(N)C(O)C(C)O1 (stereo not drawn) + Nc1ccc(C#CCN(C(=O)Cc2ncc(C(F)(F)F)cc2C(F)(F)F)c2ccc(F)cc2)nn1
- IC50 (second compound 0.0316 µM): 65.9 nM
- IC50 (second compound 0.1 µM): 118 nM
- IC50 (second compound 0.316 µM): 67.7 nM
- IC50 (second compound 1 µM): 81 nM
- IC50 (second compound 3.16 µM): 92.3 nM
- IC50 (second compound 10 µM): 142 nM
- viability, T/C [1]: 60%
- viability, T/C [2]: 44.3%
- viability, T/C [3]: 32.5%
- viability, T/C [4]: 30.2%
- viability, T/C [5]: 34.6%
- viability, T/C [6]: 28.3%
- viability, T/C [7]: 52.7%
- viability, T/C [8]: 54.3%
- viability, T/C [9]: 28.9%
- viability, T/C [10]: 33.3%
- viability, T/C [11]: 29.6%
- viability, T/C [12]: 27.2%
- viability, T/C [13]: 58.4%
- viability, T/C [14]: 45.2%
- viability, T/C [15]: 35.1%
- viability, T/C [16]: 24.8%
- viability, T/C [17]: 28.6%
- viability, T/C [18]: 26.6%
- viability, T/C [19]: 59.2%
- viability, T/C [20]: 47.7%
- viability, T/C [21]: 34.4%
- viability, T/C [22]: 26.4%
- viability, T/C [23]: 28.6%
- viability, T/C [24]: 30.8%
- viability, T/C [25]: 57.7%
- viability, T/C [26]: 49.3%
- viability, T/C [27]: 31.5%
- viability, T/C [28]: 23%
- viability, T/C [29]: 36%
- viability, T/C [30]: 24.5%
- viability, T/C [31]: 54.4%
- viability, T/C [32]: 55.5%
- viability, T/C [33]: 38.7%
- viability, T/C [34]: 22.6%
- viability, T/C [35]: 32.8%
- viability, T/C [36]: 30.5%
